In patent publication US11638707B2, “Substituted amino triazoles useful as chitinase inhibitors” (Molecure S.A., priority 2019, dated 2023):
Where a name gives a salt, the structure may show the parent alone.

Assays:
hERG channel = hERG channel (Homo sapiens (Human), UniProt Q12809); test: Human ERG channel binding assay (fluorescence polarization); conditions: Table 1; tracer displacement, 4 h at room temperature
Method in brief: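 Serially diluted compounds were incubated with a hERG-containing membrane fraction and a high-affinity red-shifted fluorescent hERG ligand. Displacement of the tracer was read by fluorescence polarization, and IC50 values were derived from the concentration-response curves.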

recombinant human CHIT1 = recombinant human CHIT1 (Homo sapiens (Human), UniProt Q13231); test: Human CHIT1 activity assay; format: biochemical; conditions: recombinant human CHIT1, citrate buffer pH 5.2, 37° C., 60 minutes; read-out: hCHIT1, IC50
recombinant human CHIT1, sequence (Q13231 22-466): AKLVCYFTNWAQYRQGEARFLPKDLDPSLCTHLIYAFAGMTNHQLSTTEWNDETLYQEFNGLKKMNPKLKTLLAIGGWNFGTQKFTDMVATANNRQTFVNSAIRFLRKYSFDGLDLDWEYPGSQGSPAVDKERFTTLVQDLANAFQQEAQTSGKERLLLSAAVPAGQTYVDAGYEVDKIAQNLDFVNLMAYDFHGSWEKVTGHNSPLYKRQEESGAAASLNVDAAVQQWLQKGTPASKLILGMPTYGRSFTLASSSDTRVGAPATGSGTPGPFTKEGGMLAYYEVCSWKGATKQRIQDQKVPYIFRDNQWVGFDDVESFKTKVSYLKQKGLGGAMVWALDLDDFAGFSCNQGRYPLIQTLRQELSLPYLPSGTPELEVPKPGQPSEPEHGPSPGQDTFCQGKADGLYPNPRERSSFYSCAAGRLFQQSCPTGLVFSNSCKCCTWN
Method in brief: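 Recombinant human CHIT1 hydrolysed 4-methylumbelliferyl β-D-N,N′,N″-triacetylchitotriose in citrate buffer, pH 5.2, for 60 minutes at 37° C in the dark with shaking. Released 4MU was read by fluorescence at 460 nm under basic pH; IC50 values were calculated from dilution series.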

recombinant human AMCase = recombinant human AMCase (Homo sapiens (Human), UniProt Q9BZP6); test: Human AMCase activity assay; format: biochemical; conditions: citrate buffer pH 5.2, 37° C., 60 minutes, read-out: hAMCase, IC50
recombinant human AMCase, sequence (Q9BZP6 22-476): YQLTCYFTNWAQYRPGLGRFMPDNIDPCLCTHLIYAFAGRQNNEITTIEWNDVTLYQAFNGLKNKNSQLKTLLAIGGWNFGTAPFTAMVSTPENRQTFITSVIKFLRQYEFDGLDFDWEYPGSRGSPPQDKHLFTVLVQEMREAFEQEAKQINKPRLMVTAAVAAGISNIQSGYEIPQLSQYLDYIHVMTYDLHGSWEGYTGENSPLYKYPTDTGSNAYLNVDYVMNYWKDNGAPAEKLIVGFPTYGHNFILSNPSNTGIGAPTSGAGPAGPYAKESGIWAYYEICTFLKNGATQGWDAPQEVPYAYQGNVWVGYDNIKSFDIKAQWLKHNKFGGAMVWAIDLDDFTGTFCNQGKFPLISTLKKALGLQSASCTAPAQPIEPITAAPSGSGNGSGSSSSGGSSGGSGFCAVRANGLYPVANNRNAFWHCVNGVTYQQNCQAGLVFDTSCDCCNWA
Description: The assay was run in the 96-well plate format, each reaction in the total volume of 100 μL. 4-Methylumbelliferyl B-D-N,N′-diacetylchitobioside hydrate was used as a substrate for the enzyme. Upon hydrolysis by AMCase, the substrate releases 4-methylumbelliferyl (4MU) that, when ionized in basic pH, emits fluorescence at 460 nm. Briefly, 40 μL of a substrate was added to each well, followed by 10 μL of compound dilution and 50 μL of hAMCase recombinant enzyme solution. The reaction was carried out in citrate buffer, pH 5.2, in the dark, at 37° C. for 60 minutes with shaking. […] The IC50 values were calculated using GraphPad Prism.

hERG channel, sequence (Q12809 whole entry): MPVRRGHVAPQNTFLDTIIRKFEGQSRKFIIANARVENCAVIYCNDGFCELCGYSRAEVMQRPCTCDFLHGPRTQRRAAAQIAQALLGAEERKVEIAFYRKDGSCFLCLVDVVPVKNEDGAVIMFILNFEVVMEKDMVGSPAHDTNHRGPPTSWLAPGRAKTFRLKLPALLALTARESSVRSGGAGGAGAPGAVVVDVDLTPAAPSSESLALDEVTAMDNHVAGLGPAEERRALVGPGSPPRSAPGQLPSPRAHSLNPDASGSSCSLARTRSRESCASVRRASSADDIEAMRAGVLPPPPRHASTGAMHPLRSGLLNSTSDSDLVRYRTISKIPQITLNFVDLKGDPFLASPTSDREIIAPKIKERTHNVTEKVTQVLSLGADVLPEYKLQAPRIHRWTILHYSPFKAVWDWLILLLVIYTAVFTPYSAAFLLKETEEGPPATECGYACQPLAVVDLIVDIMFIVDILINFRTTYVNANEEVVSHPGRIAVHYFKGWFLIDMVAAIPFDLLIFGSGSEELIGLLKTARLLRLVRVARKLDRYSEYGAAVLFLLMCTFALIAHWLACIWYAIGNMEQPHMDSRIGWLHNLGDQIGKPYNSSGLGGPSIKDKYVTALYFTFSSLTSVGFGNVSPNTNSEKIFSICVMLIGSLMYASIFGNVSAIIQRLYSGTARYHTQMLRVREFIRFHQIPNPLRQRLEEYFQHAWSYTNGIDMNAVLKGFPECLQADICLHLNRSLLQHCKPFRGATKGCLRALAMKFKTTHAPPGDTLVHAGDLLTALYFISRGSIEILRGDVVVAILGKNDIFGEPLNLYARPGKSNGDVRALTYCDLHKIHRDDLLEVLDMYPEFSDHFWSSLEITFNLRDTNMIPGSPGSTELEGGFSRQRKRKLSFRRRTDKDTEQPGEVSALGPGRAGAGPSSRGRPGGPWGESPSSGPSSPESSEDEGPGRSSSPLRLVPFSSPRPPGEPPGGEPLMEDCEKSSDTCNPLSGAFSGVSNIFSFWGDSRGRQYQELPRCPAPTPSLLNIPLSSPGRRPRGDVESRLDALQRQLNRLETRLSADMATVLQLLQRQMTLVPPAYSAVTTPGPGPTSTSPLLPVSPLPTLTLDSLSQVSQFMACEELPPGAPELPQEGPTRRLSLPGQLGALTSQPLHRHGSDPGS

Structure (SMILES) | IC50 (recombinant human CHIT1) [nM] | IC50 (recombinant human AMCase) [nM] | IC50 (hERG channel) [nM]
Nc1nnc(N2CCC(N3C[C@H](COCC(F)(F)F)OC[C@@H]3Cc3ccc(Cl)cc3)CC2)[nH]1 [Example 39, 5-(4-((2R,5S)-5-(4-chlorobenzyl)-2-((2,2,2-trifluoroethoxy)methyl)morpholino)-piperidin-1-yl)-4H-1,2,4-triazol-3-amine 2,2,2-trifluoroacetate] | < 100 | < 100 | 1000 to 10000
CS(=O)(=O)CCNC(=O)[C@H]1CN(C2CCN(c3nnc(N)[nH]3)CC2)[C@@H](Cc2ccc(Cl)cc2)CO1 [Example 45, (2R,5S)-4-(1-(5-amino-4H-1,2,4-triazol-3-yl)piperidin-4-yl)-5-(4-chlorobenzyl)-N-(2-(methylsulfonyl)ethyl)morpholine-2-carboxamide 2,2,2-trifluoroacetate] | < 100 | < 100 | > 100000
CNS(=O)(=O)CCNC(=O)[C@H]1CN(C2CCN(c3nnc(N)[nH]3)CC2)[C@@H](Cc2ccc(Cl)cc2)CO1 [Example 46, (2R,5S)-4-(1-(5-amino-4H-1,2,4-triazol-3-yl)piperidin-4-yl)-5-(4-chlorobenzyl)-N-(2-(N-methylsulfamoyl)ethyl)morpholine-2-carboxamide 2,2,2-trifluoroacetate] | < 100 | < 100 | > 100000
CN(C)C(=O)OC[C@H]1CN(C2CCN(c3nnc(N)[nH]3)CC2)[C@@H](Cc2ccc(Cl)cc2)CO1 [Example 48, ((2R,5S)-4-(1-(5-amino-4H-1,2,4-triazol-3-yl)piperidin-4-yl)-5-(4-chlorobenzyl)morpholin-2-yl)methyl dimethylcarbamate 2,2,2-trifluoroacetate] | < 100 | < 100 | 25000 to 100000
Nc1nnc(N2CCC(N3C[C@H](CN4CCCCC4)OC[C@@H]3Cc3ccc(Cl)cc3)CC2)[nH]1 [Example 52, 5-(4-((2S,5S)-5-(4-chlorobenzyl)-2-(piperidin-1-ylmethyl)morpholino)piperidin-1-yl)-4H-1,2,4-triazol-3-amine 2,2,2-trifluoroacetate] | 100 to 1000 | < 100 | 25000 to 100000
Nc1nnc(N2CCC(N3C[C@H](C(=O)N4CCC(F)(F)CC4)OC[C@@H]3Cc3ccc(Cl)cc3)CC2)[nH]1 [Example 53, ((2R,5S)-4-(1-(5-amino-4H-1,2,4-triazol-3-yl)piperidin-4-yl)-5-(4-chlorobenzyl)-morpholin-2-yl)(4,4-difluoropiperidin-1-yl)methanone 2,2,2-trifluoroacetate] | 100 to 1000 | < 100 | 25000 to 100000
Nc1nnc(N2CCC(N3C[C@H](C(=O)N4CCC(F)(F)C4)OC[C@@H]3Cc3ccc(Cl)cc3)CC2)[nH]1 [Example 54, ((2R,5S)-4-(1-(5-amino-4H-1,2,4-triazol-3-yl)piperidin-4-yl)-5-(4-chlorobenzyl)-morpholin-2-yl)(3,3-difluoropyrrolidin-1-yl)methanone 2,2,2-trifluoroacetate] | 100 to 1000 | < 100 | > 100000
Nc1nnc(N2CCC(N3C[C@H](N4CCOCC4)C[C@@H]3Cc3ccc(Cl)cc3)CC2)[nH]1 [Example 55, 5-(4-((2S,4R)-2-(4-chlorobenzyl)-4-morpholinopyrrolidin-1-yl)piperidin-1-yl)-4H-1,2,4-triazol-3-amine 2,2,2-trifluoroacetate] | < 100 | < 100 | 25000 to 100000
Nc1nnc(N2CCC(N3CC(F)(F)CC[C@@H]3Cc3ccc(Cl)cc3)CC2)[nH]1 [Example 57, (R)-5-(2-(4-chlorobenzyl)-5,5-difluoro-[1,4′-bipiperidin]-1′-yl)-4H-1,2,4-triazol-3-amine 2,2,2-trifluoroacetate] | < 100 | < 100 | > 100000
Nc1nnc(N2CCC(N3C[C@H](N4CCOCC4)CC[C@@H]3Cc3ccc(Cl)cc3)CC2)[nH]1 [Example 58, 5-((2R,5R)-2-(4-chlorobenzyl)-5-morpholino-[1,4′-bipiperidin]-1′-yl)-4H-1,2,4-triazol-3-amine 2,2,2-trifluoroacetate] | 100 to 1000 | < 100 | 10000 to 25000
Nc1nnc(N2CCC(N3C[C@H](C(=O)N4CCCC4)OC[C@@H]3Cc3ccc(Cl)cc3)CC2)[nH]1 [Example 60, ((2R,5S)-4-(1-(5-amino-4H-1,2,4-triazol-3-yl)piperidin-4-yl)-5-(4-chlorobenzyl)-morpholin-2-yl)(pyrrolidin-1-yl)methanone 2,2,2-trifluoroacetate] | 100 to 1000 | < 100 | > 100000
Nc1nnc(N2CCC(N3C[C@H](C(=O)N4CCOCC4)OC[C@@H]3Cc3ccc(Cl)cc3)CC2)[nH]1 [Example 63, ((2R,5S)-4-(1-(5-amino-4H-1,2,4-triazol-3-yl)piperidin-4-yl)-5-(4-chlorobenzyl)-morpholin-2-yl)(morpholino)methanone 2,2,2-trifluoroacetate] | 100 to 1000 | < 100 | > 100000
CC(C)(O)[C@H]1CN(C2CCN(c3nnc(N)[nH]3)CC2)[C@@H](Cc2ccc(Br)cc2)CO1 [Example 64, 2-((2R,5S)-4-(1-(5-amino-4H-1,2,4-triazol-3-yl)piperidin-4-yl)-5-(4-bromobenzyl)-morpholin-2-yl)propan-2-ol 2,2,2-trifluoroacetate] | < 100 | < 100 | > 100000

Further lines, with some results ahead:

IC50 (recombinant human CHIT1) [nM] | IC50 (recombinant human AMCase) [nM] | Structure (SMILES) | IC50 (hERG channel) [nM]
< 100 | < 100 | CSC[C@H]1CN(C2CCN(c3nnc(N)[nH]3)CC2)[C@@H](Cc2ccc(Cl)cc2)CO1 [Example 41, 5-(4-((2R,5S)-5-(4-chlorobenzyl)-2-((methylthio)methyl)morpholino)piperidin-1-yl)-4H-1,2,4-triazol-3-amine dihydrochloride] | 25000 to 100000
< 100 | < 100 | Nc1nnc(N2CCC(N3C[C@H](Cn4cc(Cl)cn4)OC[C@@H]3Cc3ccc(Cl)cc3)CC2)[nH]1 [Example 44, 5-(4-((2R,5S)-2-((4-chloro-1H-pyrazol-1-yl)methyl)-5-(4-chlorobenzyl)-morpholino)piperidin-1-yl)-4H-1,2,4-triazol-3-amine 2,2,2-trifluoroacetate] | 1000 to 10000
< 100 | < 100 | Nc1nnc(N2CCC(N3C[C@H](Cn4ccnc4)OC[C@@H]3Cc3ccc(Cl)cc3)CC2)[nH]1 [Example 47, 5-(4-((2R,5S)-2-((1H-imidazol-1-yl)methyl)-5-(4-chlorobenzyl)morpholino)-piperidin-1-yl)-4H-1,2,4-triazol-3-amine 2,2,2-trifluoroacetate] | 10000 to 25000
< 100 | < 100 | Cc1coc([C@H]2CN(C3CCN(c4nnc(N)[nH]4)CC3)[C@@H](Cc3ccc(Cl)cc3)CO2)n1 [Example 49, 5-(4-((2R,5S)-5-(4-chlorobenzyl)-2-(4-methyloxazol-2-yl)morpholino)piperidin-1-yl)-4H-1,2,4-triazol-3-amine 2,2,2-trifluoroacetate] | 10000 to 25000
< 100 | < 100 | Cc1nc([C@H]2CN(C3CCN(c4nnc(N)[nH]4)CC3)[C@@H](Cc3ccc(Cl)cc3)CO2)oc1C [Example 50, 5-(4-((2R,5S)-5-(4-chlorobenzyl)-2-(4,5-dimethyloxazol-2-yl)morpholino)piperidin-1-yl)-4H-1,2,4-triazol-3-amine 2,2,2-trifluoroacetate] | 1000 to 10000
100 to 1000 | < 100 | CC1CN(C[C@H]2CN(C3CCN(c4nnc(N)[nH]4)CC3)[C@@H](Cc3ccc(Cl)cc3)CO2)C1 [Example 51, 5-(4-((2S,5S)-5-(4-chlorobenzyl)-2-((3-methylazetidin-1-yl)methyl)morpholino)-piperidin-1-yl)-4H-1,2,4-triazol-3-amine 2,2,2-trifluoroacetate] | 25000 to 100000
< 100 | < 100 | CC1CN(C(=O)[C@H]2CN(C3CCN(c4nnc(N)[nH]4)CC3)[C@@H](Cc3ccc(Cl)cc3)CO2)C1 [Example 61, ((2R,5S)-4-(1-(5-amino-4H-1,2,4-triazol-3-yl)piperidin-4-yl)-5-(4-chlorobenzyl)-morpholin-2-yl)(3-methylazetidin-1-yl)methanone 2,2,2-trifluoroacetate] | > 100000
< 100 | < 100 | Nc1nnc(N2CCC(N3C[C@H](C(=O)N4CC(F)C4)OC[C@@H]3Cc3ccc(Cl)cc3)CC2)[nH]1 [Example 62, ((2R,5S)-4-(1-(5-amino-4H-1,2,4-triazol-3-yl)piperidin-4-yl)-5-(4-chlorobenzyl)-morpholin-2-yl)(3-fluoroazetidin-1-yl)methanone 2,2,2-trifluoroacetate] | > 100000
100 to 1000 | < 100 | CC(C)NC(=O)[C@H]1CN(C2CCN(c3nnc(N)[nH]3)CC2)[C@@H](Cc2ccc(Cl)cc2)CO1 [Example 65, (2R,5S)-4-(1-(5-amino-4H-1,2,4-triazol-3-yl)piperidin-4-yl)-5-(4-chlorobenzyl)-N-isopropylmorpholine-2-carboxamide 2,2,2-trifluoroacetate] | > 100000
